Assay [1] deals with S. aureus FDA-209-p. Nature of the assay: Antimicrobial activity test: MIC by the agar plate dilution method, S. aureus FDA-209-p. The assay is classed as cell-based, Staphylococcus aureus. The note with it: inoculum 1×10^6 cells/ml. As for the experimental part:
(§1) In order to investigate the in vitro activity of the under-mentioned compounds against various bacteria, the minimal inhibitory concentration (MIC) values were determined by the agar plate dilution method [see Chemotherapy, 22, 1126-1128 (1974)].
(§2) Each test inoculum was adjusted to 1×10^6 cells/ml (O.D., 600 mμ: 0.07-0.16).

The subject of assay [2] is E. coli NIHJ. Nature of the assay: Antimicrobial activity test: MIC by the agar plate dilution method, E. coli NIHJ. The assay is classed as cell-based. The note with it: inoculum 1×10^6 cells/ml. As for the experimental part: as §1, §2
Assay [3] relates to E. coli No. 29. Nature of the assay: Antimicrobial activity test: MIC by the agar plate dilution method, E. coli No. 29. The note with it: E. coli No. 29; inoculum 1×10^6 cells/ml. The assay is classed as cell-based. As for the experimental part: as §1, §2
The subject of assay [4] is K. pneumoniae NCTC-9632. As to the kind of experiment: Antimicrobial activity test: MIC by the agar plate dilution method, K. pneumoniae NCTC-9632. In kind it is cell-based. The note with it: inoculum 1×10^6 cells/ml. The procedure: as §1, §2
Assay [5] has as its system P. mirabilis 1287. As to the kind of experiment: Antimicrobial activity test: MIC by the agar plate dilution method, P. mirabilis 1287. In kind it is cell-based. The note with it: P. mirabilis 1287; inoculum 1×10^6 cells/ml. The procedure: as §1, §2
Assay [6] has as its system M. morganii ATCC-25830. As to the kind of experiment: Antimicrobial activity test: MIC by the agar plate dilution method, M. morganii ATCC-25830. In kind it is cell-based. The note with it: inoculum 1×10^6 cells/ml. The procedure:
as §1, §2

The subject of assay [7] is S. marcescens IFO-12648. Nature of the assay: Antimicrobial activity test: MIC by the agar plate dilution method, S. marcescens IFO-12648. In kind it is cell-based. As for the experimental part:
as §1, §2

Assay [8] relates to P. aeruginosa NCTC-10490. As to the kind of experiment: Antimicrobial activity test: MIC by the agar plate dilution method, P. aeruginosa NCTC-10490. The note with it: inoculum 1×10^6 cells/ml. The assay is classed as cell-based. The procedure:
as §1, §2

Where [9] appears, read: S. marcescens IFO-12648, inoculum 1×10^6 cells/ml.

Read-outs that look alike come from different tables or passages of the source.

As usually defined, the MIC is the least concentration at which growth counts as inhibited. Higher therefore signals weaker potency. In the case of “7-[2-(2-Aminothiazol-4-yl)-2-allyloxyiminoacetamido]-3-[(1,3,4-thiadiazol- 2-yl)thiomethyl]- Δ^3 -O-2-isocephem-4-carboxylic acid (syn-isomer) [No. 3]”, the MIC in assay [1] is 0.78 µg/mL; in assay [2], not above 0.025 µg/mL; in assay [3], not above 0.025 µg/mL; in assay [4] it was 0.1 µg/mL; in assay [5], not above 0.025 µg/mL; in assay [6], not above 0.025 µg/mL. The MIC in assay [7] (setting [9]) turned out to be 0.2 µg/mL; in assay [8], 12.5 µg/mL.
Consider “7-[2-(2-Aminothiazol-4-yl)-2-benzyloxyiminoacetamido]-3-[(1,3,4-thiadiazol-2-yl)thiomethyl]-Δ^3 -O-2-isocephem-4-carboxylic acid trifluoroacetate (syn-isomer) [No. 13]”, for which the MIC is 0.1 µg/mL in assay [1]; not above 0.025 µg/mL in assay [2]; not above 0.025 µg/mL in assay [3]; not above 0.025 µg/mL in assay [4]; not above 0.025 µg/mL in assay [5]; not above 0.025 µg/mL in assay [6]. Further, the MIC in assay [7] (setting [9]) turned out to be 0.1 µg/mL; in assay [8], 1.56 µg/mL.
For “7-[2-(2-Aminothiazol-4-yl)-2-cyanomethyloxyiminoacetamido]-3-[(1,2,3-thiadiazol-5-yl)thiomethyl]-Δ^3 -O-2-isocephem-4-carboxylic acid trifluoroacetate (syn-isomer) [Example 55]”, the MIC in assay [1] is 0.2 µg/mL; in assay [2], not above 0.025 µg/mL; in assay [3], not above 0.025 µg/mL; in assay [4] it was not above 0.025 µg/mL; in assay [5] it was not above 0.025 µg/mL; in assay [6], not above 0.025 µg/mL. Also, the MIC in assay [7] (setting [9]) turned out to be 0.1 µg/mL; in assay [8], 1.56 µg/mL.
Take “7-[2-(2-Aminothiazol-4-yl)-2-cyanomethyloxyiminoacetamido]-3-[(1,3,4-thiadiazol-2-yl)thiomethyl]-Δ^3 -O-2-isocephem-4-carboxylic acid trifluoroacetate (syn-isomer) [No. 11]”: the minimal inhibitory concentration (MIC) in assay [1] amounted to 0.78 µg/mL; in assay [2], 0.39 µg/mL; in assay [3], 0.2 µg/mL; in assay [4], 0.39 µg/mL; in assay [5] it was 0.05 µg/mL; in assay [6], 0.1 µg/mL. For the same substance, the MIC in assay [7] (setting [9]) and in assay [8] was 1.56 µg/mL in each case.
Turning to “7-[2-(2-Aminothiazol-4-yl)-2-propargyloxyiminoacetamido]3-[(1,3,4-thiadiazol-2-yl)thiomethyl-66^3 -O-b 2-isocephem-4-carboxylic acid trifluoroacetate (syn-isomer) [No. 7]”, the MIC in assay [2] was not above 0.025 µg/mL; in assay [3], 0.1 µg/mL; in assay [4] it was 0.1 µg/mL; in assay [5], not above 0.025 µg/mL; in assay [6], 0.05 µg/mL; in assay [7] (setting [9]), 0.2 µg/mL. The same substance registered an MIC in assay [8] of 0.78 µg/mL.
As for “7-[2-(2-Formamidothiazol-4-yl)-2-(2-chloroethoxy)iminoacetamido]-3-[(1,3,4- thiadiazol-2-yl)thiomethyl-]-Δ^3 -O-2-isocephem-4-carboxylic acid (syn-isomer) [Example 33]”, the MIC is 0.1 µg/mL in assay [2]; 0.2 µg/mL in assay [3]; 0.1 µg/mL in assay [4]; 0.05 µg/mL in assay [5]; 0.2 µg/mL in assay [6]; 0.78 µg/mL in assay [7]. In addition, in assay [8], the MIC came to 1.56 µg/mL.
As for “(6S,7S)-7-[2-(2-Aminothiazol-4-yl}-2methoxyiminoacetamido]-3-[(1,3,4-thiadiazol-2-yl)thiomethyl]-Δ^3 -O-2-isocephem-4-carboxylic acid trifluoroacetate (syn-isomer) [No. 15]”, the MIC in assay [2] is not above 0.025 µg/mL; in assay [3], not above 0.025 µg/mL; in assay [4], not above 0.025 µg/mL; in assay [5], not above 0.025 µg/mL; in assay [6], not above 0.025 µg/mL; in assay [7] (setting [9]), 0.2 µg/mL. The substance further came in with an MIC in assay [8] of 1.56 µg/mL.
Regarding “Benzhydryl 7-[2-(2-tritylaminothiazol-4-yl)-2-cyclopropylmethyloxyiminoacetamido-]-3- (1,3,4-thiadiazol-2-yl)thiomethyl]-Δ^3 -O-2-isocephem-4-carboxylate (syn-isomer) [Example 35]”, the MIC in assay [1] is 0.2 µg/mL; in assay [3], 0.2 µg/mL; in assay [4], 0.2 µg/mL; in assay [5] it was 0.2 µg/mL; in assay [6] it was 0.39 µg/mL; in assay [7] it was 0.39 µg/mL. Also, in assay [8], the MIC was 0.39 µg/mL.
Regarding “Benzhydryl 7-[2-(2-tritylaminothiazol-4-yl)-2-propargyloxyiminoacetamido]-3-[(1,3,4-thiadiazol-2-yl)thiomethyl]-Δ^3 -O-2-isocephem-4-carboxylate (syn-isomer) [Example 21]”, the MIC in assay [1] is 3.13 µg/mL; in assay [3], 0.1 µg/mL; in assay [4] it was 0.2 µg/mL; in assay [5], not above 0.025 µg/mL; in assay [6], 0.05 µg/mL; in assay [7] it was 0.39 µg/mL. Further, in assay [8], the MIC is 3.13 µg/mL.
Regarding “Benzhydryl 7-[2-(2-tritylaminothiazol-4-yl)-2cyanomethyloxyiminoacetamido-]-3-[(1,3,4-thiadiazol-2-yl)thiomethyl]-Δ^3 -O-2-isocephem-4-carboxylate (syn-isomer) [Example 41]”, the MIC in assay [1] is 0.39 µg/mL; in assay [3], 0.2 µg/mL; in assay [4] it was 0.39 µg/mL; in assay [5], 0.2 µg/mL; in assay [6], 0.78 µg/mL; in assay [7] (setting [9]), 1.56 µg/mL. For the same substance, the MIC in assay [8] came out at 0.78 µg/mL.
As to “Benzhydryl (6S,7S)-7-[2-(2-aminothiazol-4-yl)-2-methoxyiminoacetamido]-3-[(1,3,4-thiadiazol-2-yl)thiomethyl]-Δ^3 -O-2-isocephem-4-carboxylate (syn-isomer) [Example 59]”, the MIC in assay [1] is 0.39 µg/mL; in assay [3], not above 0.025 µg/mL; in assay [4], not above 0.025 µg/mL; in assay [5], not above 0.025 µg/mL; in assay [6] it was not above 0.025 µg/mL; in assay [7], 0.39 µg/mL. The substance further gave an MIC in assay [8] of 25 µg/mL.
Consider “Benzyl7-[2-(2-aminothiazol-4-yl)-2-methoxyiminoacetamido]-3-[(carbamoyloxy)methyl]-Δ^3 -O-2-isocephem-4-carboxylate (syn-isomer) [Example 3]”, for which the MIC in assay [1] is 0.39 µg/mL; in assay [3], 0.2 µg/mL; in assay [4] it was 0.39 µg/mL; in assay [5], not above 0.025 µg/mL; in assay [6], not above 0.025 µg/mL; in assay [7], 0.39 µg/mL. The MIC in assay [8] was 1.56 µg/mL.
For “Benzyl 7-[2-(2-chloroacetamidothiazol-4-yl)-2-(tert-butoxycarbonylmethoxyimino)acetamido]-3-[(1,3,4-thiadiazol-2-yl)thiomethyl]-Δ^3 -O-2-isocephem-4carboxylate (syn-isomer) [Example 2]”, the MIC in assay [1] was 0.78 µg/mL; in assay [3] it was 0.05 µg/mL; in assay [4], 0.2 µg/mL; in assay [5], not above 0.025 µg/mL; in assay [6], not above 0.025 µg/mL; in assay [7] (setting [9]), 0.2 µg/mL. The substance also returned an MIC in assay [8] of 3.13 µg/mL.
On to “Benzyl 7-[2-(2-chloroacetamidothiazol-4-yl)-2-cyclopentyloxyiminoacetamido]-3-[(1,3,4-thiadiazol-2- yl)thiomethyl]-Δ^3 -O-2-isocephem-4-carboxylate (syn-isomer) [Example 25]”, for which the MIC in assay [1] was 1.56 µg/mL; in assay [3], not above 0.025 µg/mL; in assay [4] it was 0.05 µg/mL; in assay [5], not above 0.025 µg/mL; in assay [6], not above 0.025 µg/mL; in assay [7] (setting [9]), 0.2 µg/mL. In addition, the MIC in assay [8] was determined as 0.78 µg/mL.
Turning to “Benzyl 7-[2-(2-trichloroacetamidothiazol-4-yl)-2-methoxyiminoacetamido]-3-[(carbamoyloxy)methyl]-Δ^3 -O-2-isocephem-4-carboxylate (syn-isomer) [Example 5]”, the MIC was 3.13 µg/mL in assay [1]; 0.1 µg/mL in assay [3]; 0.1 µg/mL in assay [4]; not above 0.025 µg/mL in assay [5]; 0.05 µg/mL in assay [6]; 0.2 µg/mL in assay [7] (setting [9]). The substance also had an MIC in assay [8] of 25 µg/mL.
As for “Benzyl 7-[2-(2-trifluoroacetamidothiazol-4-yl)-2-methoxyiminoacetamido]-3-[(carbamoyloxy)methyl]-Δ^3 -O-2-isocephem-4-carboxylate (syn-isomer) [Example 4]”, the MIC in assay [1] is 0.78 µg/mL; in assay [3], 0.05 µg/mL; in assay [4], 0.1 µg/mL; in assay [5] it was not above 0.025 µg/mL; in assay [6], not above 0.025 µg/mL; in assay [7] (setting [9]), 0.2 µg/mL. Moreover, the MIC in assay [8] was found to be 6.25 µg/mL.

For the origin of these results see patent US4831026A, “2-oxa-isocephem compounds, compositions containing same and processes of using” (Otsuka Pharmaceutical Co., Ltd., priority 1985, dated 1989).
